The record followed here is patent US20140345648A1, “Oral Healthcare, Products and Methods Therefor” (OZOSPA HOLDINGS LIMITED, priority 2011, published 2014).

Assay [1] concerns Porphyromonas gingivalis ATCC 3327. Nature of the assay: Challenge test of powder product, liquid product, xylitol and bicarbonate of soda (based on B.S.3286:1960), Example 4. The format is cell-based. Particulars: for Porphyromonas gingivalis ATCC 3327 Population Levels T = 0 / Porphyromonas gingivalis ATCC 3327 Population Levels T = 2 / Porphyromonas gingivalis ATCC 3327 Population Levels T = 1 / Porphyromonas gingivalis ATCC 3327 Population Levels T = 4 / Porphyromonas gingivalis ATCC 3327 Population Levels T = 3 / Porphyromonas gingivalis ATCC 3327 Population Levels T = 6 / Porphyromonas gingivalis ATCC 3327 Population Levels T = 5 / Porphyromonas gingivalis ATCC 3327 Population Levels T = 8 / Porphyromonas gingivalis ATCC 3327 Population Levels T = 7: Table 7; for Porphyromonas gingivalis ATCC 3327 Population Levels T = 0: Day 0, powders 1:5, liquid neat; for Porphyromonas gingivalis ATCC 3327 Population Levels T = 2: Day 1, 2 hrs after 10 mls of fresh sol'n added; for Porphyromonas gingivalis ATCC 3327 Population Levels T = 1: Day 1, prior to 10 mls of fresh sol'n added; for Porphyromonas gingivalis ATCC 3327 Population Levels T = 4: Day 2, 2 hrs after 10 mls of fresh sol'n added; for Porphyromonas gingivalis ATCC 3327 Population Levels T = 3: Day 2, prior to 10 mls of fresh sol'n added; for Porphyromonas gingivalis ATCC 3327 Population Levels T = 6: Day 3, 2 hrs after 10 mls of fresh sol'n added; for Porphyromonas gingivalis ATCC 3327 Population Levels T = 5: Day 3, prior to 10 mls of fresh sol'n added; for Porphyromonas gingivalis ATCC 3327 Population Levels T = 8: Day 4, 2 hrs after 10 mls of fresh sol'n added; for Porphyromonas gingivalis ATCC 3327 Population Levels T = 7: Day 4, prior to 10 mls of fresh sol'n added; for effect against the Porphyromonas gingivalis population (in words): controlled laboratory test. On the procedure: (§1) The powder product and the liquid product were challenge tested against the organisms Streptococcus mutans and Porphyromonas gingivalis. […] The challenge method used was based on B.S.3286: 1960 “Method for Laboratory Evaluation of Disinfectant Activity of Quaternary Ammonium Compounds by Suspension Test Procedure”. This standard describes a test procedure for the laboratory evaluation of the activity of disinfectants, in which a suspension of viable microorganisms is added to solutions containing a pre-determined concentration of the disinfectant and the numbers of organisms surviving after a period of time is determined. A 1:5 solution of the powders with sterile deionised water was used for the challenge testing. The liquid product was used neat. The following organisms were used for the challenge testing: […] A modification will be made to the method by the addition of 10 ml of each solution each day, for 4 days. (The blank solution would have 10 ml of Neutralising buffer added.) […]

For assay [2], the system named is Streptococcus mutans ATCC 25175. Described as above. The class given is cell-based. The conditions noted are these: for Streptococcus mutans ATCC 25175 Population Levels T = 0: Day 0, powders 1:5, liquid neat; for Streptococcus mutans ATCC 25175 Population Levels T = 2: Day 1, 2 hrs after 10 mls of fresh sol'n added; for Streptococcus mutans ATCC 25175 Population Levels T = 1: Day 1, prior to 10 mls of fresh sol'n added; for Streptococcus mutans ATCC 25175 Population Levels T = 4: Day 2, 2 hrs after 10 mls of fresh sol'n added; for Streptococcus mutans ATCC 25175 Population Levels T = 3: Day 2, prior to 10 mls of fresh sol'n added; for Streptococcus mutans ATCC 25175 Population Levels T = 6: Day 3, 2 hrs after 10 mls of fresh sol'n added; for Streptococcus mutans ATCC 25175 Population Levels T = 5: Day 3, prior to 10 mls of fresh sol'n added; for Streptococcus mutans ATCC 25175 Population Levels T = 8: Day 4, 2 hrs after 10 mls of fresh sol'n added; for Streptococcus mutans ATCC 25175 Population Levels T = 7: Day 4, prior to 10 mls of fresh sol'n added. Here is the method:
as §1

Consider `O=C([O-])O.[Na+]` [Bicarbonate of Soda solution, Sodium Bicarbonate], for which, in assay [1], the “Porphyromonas gingivalis ATCC 3327 Population Levels T = 0” value was 2.5 × 10^6 cfu/ml, the “Porphyromonas gingivalis ATCC 3327 Population Levels T = 2” value is 3.1 × 10^5 cfu/ml, the “Porphyromonas gingivalis ATCC 3327 Population Levels T = 1” value was 5.9 × 10^5 cfu/ml and the “Porphyromonas gingivalis ATCC 3327 Population Levels T = 4” value is 1.1 × 10^5 cfu/ml. Besides, in assay [1], the “Porphyromonas gingivalis ATCC 3327 Population Levels T = 3” value is on record as 1.2 × 10^5 cfu/ml, the “Porphyromonas gingivalis ATCC 3327 Population Levels T = 6” value is on record as 3.3 × 10^4 cfu/ml, the “Porphyromonas gingivalis ATCC 3327 Population Levels T = 5” value is listed as 2.4 × 10^4 cfu/ml and the “Porphyromonas gingivalis ATCC 3327 Population Levels T = 8” value is recorded as 2.8 × 10^3 cfu/ml. For the same compound, in assay [1], the “Porphyromonas gingivalis ATCC 3327 Population Levels T = 7” value was 4.8 × 10^3 cfu/ml and the “effect against the Porphyromonas gingivalis population (in words)” value is “did not appear to be effective on its own”. Besides, in assay [2], the “Streptococcus mutans ATCC 25175 Population Levels T = 0” value was 1.5 × 10^7 cfu/ml, the “Streptococcus mutans ATCC 25175 Population Levels T = 2” value is listed as 3.4 × 10^5 cfu/ml, the “Streptococcus mutans ATCC 25175 Population Levels T = 1” value is given as 1.8 × 10^6 cfu/ml and the “Streptococcus mutans ATCC 25175 Population Levels T = 4” value is reported as 3.2 × 10^4 cfu/ml. Moreover, in assay [2], the “Streptococcus mutans ATCC 25175 Population Levels T = 3” value is on record as 6.7 × 10^4 cfu/ml, the “Streptococcus mutans ATCC 25175 Population Levels T = 6” value was 2.8 × 10^3 cfu/ml, the “Streptococcus mutans ATCC 25175 Population Levels T = 5” value was 7.7 × 10^3 cfu/ml and the “Streptococcus mutans ATCC 25175 Population Levels T = 8” value was determined as 10 cfu/ml. The “Streptococcus mutans ATCC 25175 Population Levels T = 7” value in assay [2] is reported as 1.2 × 10^2 cfu/ml. In addition, the “reduction in the Streptococcus mutans population” value in assay [2] (over the 5 days, Example 4) worked out at 6 log.

As to `OC[C@@H](O)[C@H](O)[C@@H](O)CO` [Xylitol solution, Xylitol], in assay [1], the “Porphyromonas gingivalis ATCC 3327 Population Levels T = 0” value is on record as 2.6 × 10^6 cfu/ml, the “Porphyromonas gingivalis ATCC 3327 Population Levels T = 2” value was 1.9 × 10^3 cfu/ml, the “Porphyromonas gingivalis ATCC 3327 Population Levels T = 1” value is listed as 9.1 × 10^3 cfu/ml and the “Porphyromonas gingivalis ATCC 3327 Population Levels T = 4” value was under 10 cfu/ml. In addition, in assay [1], the “Porphyromonas gingivalis ATCC 3327 Population Levels T = 3” value was found to be 20 cfu/ml, the “Porphyromonas gingivalis ATCC 3327 Population Levels T = 6” value is listed as under 10 cfu/ml, the “Porphyromonas gingivalis ATCC 3327 Population Levels T = 5” value is recorded as under 10 cfu/ml and the “Porphyromonas gingivalis ATCC 3327 Population Levels T = 8” value is listed as under 10 cfu/ml. In assay [1], the “Porphyromonas gingivalis ATCC 3327 Population Levels T = 7” value is under 10 cfu/ml and the “effect against the Porphyromonas gingivalis population (in words)” value is given as “reasonably effective”. Moreover, in assay [2], the “Streptococcus mutans ATCC 25175 Population Levels T = 0” value is reported as 1.5 × 10^7 cfu/ml, the “Streptococcus mutans ATCC 25175 Population Levels T = 2” value is on record as 5.2 × 10^5 cfu/ml, the “Streptococcus mutans ATCC 25175 Population Levels T = 1” value was 7.8 × 10^6 cfu/ml and the “Streptococcus mutans ATCC 25175 Population Levels T = 4” value is on record as 2.6 × 10^4 cfu/ml. Besides, in assay [2], the “Streptococcus mutans ATCC 25175 Population Levels T = 3” value is reported as 1.0 × 10^5 cfu/ml, the “Streptococcus mutans ATCC 25175 Population Levels T = 6” value was 1.6 × 10^4 cfu/ml, the “Streptococcus mutans ATCC 25175 Population Levels T = 5” value is on record as 1.0 × 10^4 cfu/ml and the “Streptococcus mutans ATCC 25175 Population Levels T = 8” value is on record as under 10 cfu/ml. The “Streptococcus mutans ATCC 25175 Population Levels T = 7” value in assay [2] was 30 cfu/ml.
